Like-named read-outs stand apart in the source and are kept apart here.
Experiments:
SARS-CoV = test: microbe, parasite or virus in culture; type: cell-based, SARS-CoV Urbani strain
SARS-CoV PLpro [1] = molecular target: T1, SARS-CoV PLpro (Severe acute respiratory syndrome coronavirus, UniProt P0C6X7); test: biochemical; conditions: for inhibition at 100 µM: read-out: inhibition of PLpro activity
hUCH-L1 = molecular target: T2, hUCH-L1 (Homo sapiens, UniProt P09936); test: Inhibitor specificity assay, UCH-L1; type: biochemical; conditions: Table 6; assayed with 100 μM inhibitor, ubiquitin-AMC substrate
T2 construct: purchased Biomol International
T2 sequence (P09936 1-223): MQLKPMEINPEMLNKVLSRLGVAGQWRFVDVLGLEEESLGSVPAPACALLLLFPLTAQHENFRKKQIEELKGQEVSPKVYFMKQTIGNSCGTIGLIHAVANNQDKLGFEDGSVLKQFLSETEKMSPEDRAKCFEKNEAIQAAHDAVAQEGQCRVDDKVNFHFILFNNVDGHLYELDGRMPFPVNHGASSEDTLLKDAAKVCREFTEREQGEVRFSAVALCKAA

hUCH-L3 = molecular target: T3, hUCH-L3 (Homo sapiens, UniProt P15374); test: Inhibitor specificity assay, UCH-L3; type: biochemical; conditions: Table 6; assayed with 100 μM inhibitor, ubiquitin-AMC substrate
T3 construct: purchased Biomol International
T3 sequence (P15374 1-230): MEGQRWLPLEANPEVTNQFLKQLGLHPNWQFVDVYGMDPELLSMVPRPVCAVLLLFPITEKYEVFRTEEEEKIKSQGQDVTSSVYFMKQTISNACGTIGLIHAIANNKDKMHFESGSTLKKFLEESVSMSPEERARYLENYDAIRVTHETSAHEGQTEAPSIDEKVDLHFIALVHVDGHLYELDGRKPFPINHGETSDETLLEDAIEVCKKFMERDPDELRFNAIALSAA

SARS-CoV PLpro [2] = molecular target: T1, SARS-CoV PLpro; type: biochemical
SARS-CoV PLpro [3] = molecular target: T1, SARS-CoV PLpro; type: biochemical; remark: listed apart in the source
HAUSP = molecular target: T4, HAUSP (Homo sapiens, UniProt Q93009); test: Inhibitor specificity assay, HAUSP; type: biochemical; conditions: Table 6; assayed with 100 μM inhibitor, ubiquitin-AMC substrate
T4 construct: purchased Boston Biochem
T4 sequence (Q93009 whole entry): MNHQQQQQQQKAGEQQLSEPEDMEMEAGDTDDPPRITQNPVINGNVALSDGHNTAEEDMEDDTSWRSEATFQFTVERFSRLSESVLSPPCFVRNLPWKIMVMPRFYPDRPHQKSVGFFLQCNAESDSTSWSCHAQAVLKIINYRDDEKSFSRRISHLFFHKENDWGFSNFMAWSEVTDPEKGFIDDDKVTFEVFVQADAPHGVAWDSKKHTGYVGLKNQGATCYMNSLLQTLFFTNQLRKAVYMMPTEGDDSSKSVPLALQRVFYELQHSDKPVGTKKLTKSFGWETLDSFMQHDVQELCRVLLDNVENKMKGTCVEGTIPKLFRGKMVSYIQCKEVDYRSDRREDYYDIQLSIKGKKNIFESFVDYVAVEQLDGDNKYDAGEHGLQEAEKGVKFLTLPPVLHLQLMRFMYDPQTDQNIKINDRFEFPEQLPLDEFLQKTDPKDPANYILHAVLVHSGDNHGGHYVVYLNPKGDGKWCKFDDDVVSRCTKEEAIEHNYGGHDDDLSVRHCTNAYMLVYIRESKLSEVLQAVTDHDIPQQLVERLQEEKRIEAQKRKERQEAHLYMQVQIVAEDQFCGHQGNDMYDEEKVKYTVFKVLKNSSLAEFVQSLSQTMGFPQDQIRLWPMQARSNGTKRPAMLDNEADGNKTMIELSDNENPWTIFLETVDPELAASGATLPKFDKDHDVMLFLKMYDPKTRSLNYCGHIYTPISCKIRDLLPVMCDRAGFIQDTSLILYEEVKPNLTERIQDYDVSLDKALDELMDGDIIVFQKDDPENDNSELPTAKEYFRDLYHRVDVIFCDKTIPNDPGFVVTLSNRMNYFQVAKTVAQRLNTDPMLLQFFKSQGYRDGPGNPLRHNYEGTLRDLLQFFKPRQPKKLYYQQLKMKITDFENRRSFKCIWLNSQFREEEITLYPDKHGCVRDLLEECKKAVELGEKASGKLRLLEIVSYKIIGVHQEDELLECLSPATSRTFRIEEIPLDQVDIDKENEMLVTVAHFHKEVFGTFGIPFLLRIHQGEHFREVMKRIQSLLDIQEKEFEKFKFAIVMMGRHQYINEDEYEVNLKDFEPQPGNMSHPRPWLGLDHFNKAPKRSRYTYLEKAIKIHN

hUSP18 = molecular target: T5, hUSP18 (Homo sapiens, UniProt Q9UMW8); test: Inhibitor specificity assay, USP18; type: biochemical; conditions: Table 6; assayed with 100 μM inhibitor, ISG15-AMC substrate
T5 construct: purchased Boston Biochem
T5 sequence (Q9UMW8 1-372): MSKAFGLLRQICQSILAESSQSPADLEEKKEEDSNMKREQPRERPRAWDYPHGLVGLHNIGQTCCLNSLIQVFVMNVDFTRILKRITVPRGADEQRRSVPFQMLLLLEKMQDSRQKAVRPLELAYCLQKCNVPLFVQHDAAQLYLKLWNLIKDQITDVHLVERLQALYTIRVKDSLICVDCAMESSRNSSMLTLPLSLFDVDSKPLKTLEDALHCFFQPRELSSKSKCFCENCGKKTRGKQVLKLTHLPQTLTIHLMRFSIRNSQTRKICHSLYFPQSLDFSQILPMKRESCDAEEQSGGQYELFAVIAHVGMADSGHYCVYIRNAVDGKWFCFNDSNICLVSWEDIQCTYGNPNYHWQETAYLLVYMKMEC

SARS-CoV PLpro [4] = molecular target: T1, SARS-CoV PLpro; test: biochemical; conditions: read-out: percent inhibition of PLpro in primary screen
[5] = Severe acute respiratory syndrome coronavirus, Vero C1008
[6] = read-out: IC50 (μM), enzyme inhibitory activity
[7] = Severe acute respiratory syndrome coronavirus, Vero C1008, 48 h, read-out: EC50 of antiviral activity

CNCc1ccc(C)c(C(=O)N[C@H](C)c2cccc3ccccc23)c1 [Compound 49] gave an EC50 (SARS-CoV; [5]) of 5.2 ± 0.3 µM.

Compound C[C@@H](NC(=O)c1ccccc1O)c1ccc2ccccc2c1 [Compound 5g, 2-Hydroxy-N—[(R)-1-(2-naphthyl)ethyl]benzamide] has an IC50 (SARS-CoV PLpro [1]) greater than 200 µM.

In the case of CC(=O)Nc1ccc(C)c(C(=O)N[C@H](C)c2cccc3ccccc23)c1 [Compound 25, 5-N-Acetylamino-2-methyl-N—[(R)-1-(1-naphthyl)ethyl]benzamide], the IC50 (SARS-CoV PLpro [1]; read-out: IC50) is reported as 2.64 ± 0.04 µM, the IC50 (SARS-CoV PLpro [1]; [6]) is reported as 2.64 ± 0.04 µM and the IC50 (SARS-CoV PLpro [1]; read-out: IC50 values (μM) PLpro) is reported as 2.6 µM. The EC50 (SARS-CoV; [5]) was 13.1 ± 0.7 µM, the EC50 (SARS-CoV; [7]) was 10 to 15 µM and the IC50 (hUCH-L1) was greater than 100 µM. For the same compound, the IC50 (hUCH-L3) was greater than 100 µM and the “toxicity in Vero E6 cells” value (Vero E6 cells) was “without toxicity up to the highest concentration tested”.

Cc1ccc(CNC(=O)OC(C)(C)C)cc1C(=O)N[C@H](C)c1cccc2ccccc12 [Compound 47, 5-N-tert-Butoxycarbonylmethylamino-2-methyl-N^0—[(R)-1-(1-naphthyl)ethyl]benzamide] was tested, and the EC50 (SARS-CoV; [5]) was greater than 50 µM.

For COc1ccccc1CNC(=O)C1CCN([C@H](C)c2cccc3ccccc23)CC1 [Compound 67], the IC50 (SARS-CoV PLpro [1]; read-out: IC50) was 1.21 ± 0.04 µM.

With Cc1cc([N+](=O)[O-])ccc1C(=O)NC(C)c1ccnc2ccccc12 (racemic) [Compound 51] the IC50 (SARS-CoV PLpro [1]) was 3.5 µM.

Work on C[C@@H](NC(=O)c1ccc(NC(=O)OC(C)(C)C)cc1)c1ccc2ccccc2c1 [Compound 8, 4-N^0-tert-Butoxycarbonylamino-N—[(R)-1-(2-naphthyl)ethyl]-benzamide] yielded an IC50 (SARS-CoV PLpro [1]) greater than 200 µM.

Compound COc1cccc(CNC(=O)C2CCN([C@@H](C)c3ccc4ccccc4c3)CC2)c1 [Compound 61] has an IC50 (SARS-CoV PLpro [1]) of 13.2 ± 0.6 µM and an EC50 (SARS-CoV; [5]) of 12 µM.

For CCC(NC(=O)c1ccccc1C)c1ccc2ccccc2c1 (racemic) [Compound 14, 2-Methyl-N-[1-(2-naphthyl)propyl]benzamide], the IC50 (SARS-CoV PLpro [1]) was greater than 200 µM.

Work on “5-Methylamino-2-methyl-N—[(R)-1-(1-naphthyl)ethyl]benzamide [Compound 2]” yielded an EC50 (SARS-CoV; Table 5, antiviral activity against SARS-CoV, highest concentration tested 50 uM, read-out: EC50) of 6 ± 0.1 µM.

Cc1ccc(N)cc1C(=O)N[C@H](C)c1cccc2ccccc12 [Compound 24, 5-Amino-2-methyl-N—[(R)-1-(1-naphthyl)ethyl]benzamide] was tested, and the mode of inhibition (SARS-CoV PLpro [2]) was “competitive inhibitor”, the “PLpro activity recovered after dialysis” value (SARS-CoV PLpro [3]) was “Approximately 25%” and the IC50 (hUCH-L1) was greater than 100 µM. The IC50 (hUCH-L3) was greater than 100 µM, the IC50 (HAUSP) was greater than 100 µM and the IC50 (hUSP18) was greater than 100 µM. The “toxicity in Vero E6 cells” value (Vero E6 cells) was “without toxicity up to the highest concentration tested”.

C[C@@H](c1cccc2ccccc12)N1CCC(C(=O)NCc2ccc3c(c2)OCO3)CC1 [Compound 68] gave an IC50 (SARS-CoV PLpro [1]; read-out: IC50) of 0.56 µM and an EC50 (SARS-CoV; [5]) of 3 µM.

With C[C@@H](NC(=O)c1ccccc1Cl)c1ccc2ccccc2c1 [Compound 3, 2-Chloro-N—[(R)-1-(2-naphthyl)ethyl]benzamide] the IC50 (SARS-CoV PLpro [1]) was 14.5 ± 0.9 µM, the “fold decrease in inhibitory potency compared to 1b” value (SARS-CoV PLpro [1]) was 2 fold and the EC50 (SARS-CoV; [5]) was greater than 50 µM.

Cc1ccccc1C(=O)N[C@H](C)c1ccc2ccccc2c1 [Compound 1b, 2-Methyl-N—[(R)-1-(2-naphthyl)ethyl]benzamide] showed an inhibition at 100 µM (SARS-CoV PLpro [1]) greater than 90% and an EC50 (SARS-CoV; [5]) greater than 50 µM.

In the case of Cc1ccc(N)cc1C(=O)NC(C)c1ccnc2ccccc12 (racemic) [Compound 50], the IC50 (SARS-CoV PLpro [1]) is reported as 1.85 µM.

Cc1ccccc1C(=O)N[C@@H](C)c1ccc2ccccc2c1 [Compound 1a] showed an inhibition at 100 µM (SARS-CoV PLpro [1]) of 14%.

For C[C@H](c1cccc2ccccc12)N1CCC(C(=O)NCc2ccc3c(c2)OCO3)CC1 [Compound 69], the EC50 (SARS-CoV; [5]) was 3 µM.

For Cc1ccc([N+](=O)[O-])cc1C(=O)N[C@H](C)c1cccc2ccccc12 [Compound 5i, 2-Methyl-5-nitro-N—[(R)-1-(1-naphthyl)ethyl]benzamide], the IC50 (SARS-CoV PLpro [1]) was 7.3 ± 0.9 µM, the “fold decrease in activity compared to 5h” value (SARS-CoV PLpro [1]) was roughly 3 fold and the EC50 (SARS-CoV; [5]) was greater than 50 µM.

Cc1ccc(N)cc1C(=O)NC(C)(C)c1cccc2ccccc12 [Compound 29, 5-Amino-2-methyl-N-[1-methyl-1-(1-naphthyl)ethyl]benzamide] was tested, and the EC50 (SARS-CoV; [5]) was greater than 50 µM.

For COc1cccc(CNC(=O)C2CCN([C@H](C)c3cccc4ccccc34)CC2)c1 [Compound 64], the IC50 (SARS-CoV PLpro [1]; read-out: IC50) was 0.34 µM and the EC50 (SARS-CoV; [5]) was 8 µM.

COc1ccc(CNC(=O)C2CCN([C@H](C)c3cccc4ccccc34)CC2)cc1 [Compound 63] gave an IC50 (SARS-CoV PLpro [1]; read-out: IC50) of 0.34 µM and an EC50 (SARS-CoV; [5]) of 10 µM.

Cc1ccccc1C(=O)N[C@H](C)c1cccc2ccccc12 [Compound 5h, 2-Methyl-N—[(R)-1-(1-naphthyl)ethyl]benzamide] gave an EC50 (SARS-CoV; [5]) of 10 ± 1.2 µM, an EC50 (SARS-CoV; [7]) of 10 to 15 µM and an IC50 (hUCH-L1) greater than 100 µM. For the same compound, the IC50 (hUCH-L3) was greater than 100 µM and the “toxicity in Vero E6 cells” value (Vero E6 cells) was “without toxicity up to the highest concentration tested”.

Compound Cc1cccc(C(=O)N[C@H](C)c2ccc3ccccc3c2)c1 [Compound 5a, 3-Methyl-N—[(R)-1-(2-naphthyl)ethyl]benzamide] has an EC50 (SARS-CoV; [5]) greater than 50 µM.

With Cc1ccccc1C(=O)NC(c1ccccc1)c1ccc2ccccc2c1 (stereo not shown) [Compound 17, 2-Methyl-N-[1-(2-naphthyl)benzyl]benzamide] the IC50 (SARS-CoV PLpro [1]; [6]) was greater than 200 µM.

With Cc1ccccc1C(=O)NC(C)c1ccc2ccccc2c1 (racemic) [Compound 1, 2-methyl-N-[1-(2-naphthyl)ethyl]benzamide] the EC50 (SARS-CoV; [5]) was greater than 50 µM and the inhibition at 20 µM (SARS-CoV PLpro [4]) was greater than 35%.

COc1cccc(CNC(=O)C2CCN([C@H](C)c3ccc4ccccc4c3)CC2)c1 [Compound 62] gave an IC50 (SARS-CoV PLpro [1]) of 5.8 ± 0.1 µM.

Compound Cc1cc(N)ccc1C(=O)NC(C)c1ccnc2ccccc12 (racemic) [Compound 52] has an IC50 (SARS-CoV PLpro [1]) of 2.3 µM.

CCc1ccccc1C(=O)N[C@H](C)c1ccc2ccccc2c1 [Compound 4, 2-Ethyl-N—[(R)-1-(2-naphthyl)ethyl]benzamide] gave an IC50 (SARS-CoV PLpro [1]) greater than 200 µM.

From patent US20110269834A1 (priority 2008, published 2011)
